# In patent US20240327425A1, “KRAS G12D INHIBITOR AND USE THEREOF” (SHANGHAI DE NOVO PHARMATECH CO., LTD., priority 2021, published 2024):
# Where a name gives a salt, the structure may show the parent alone.
# Biological target: Human KRAS G12D His-tagged protein (Homo sapiens (Human), UniProt P01116, G12D)
# Experiment: KRAS G12D binding assay (TR-FRET)
# Conditions: GDP 20 nM, GTP-Red
# Protocol: The binding ability of the compound to KRAS G12D protein was detected by TR-FRET method, and the inhibitory activity of the compound on KRAS G12D protein was evaluated. Human KRAS G12D His-tagged (Cisbio, 63ADK000CB27PEG) protein was 100-fold diluted with PPI Eu detection buffer (Cisbio, 61DB9RBF), then 5 μL of which was added to a 384-well plate and centrifuged at 2000 rpm for 40 seconds. A 10 mM concentrated stock solution of the test compound was prepared with dimethyl sulfoxide, 3-fold serially diluted, then diluted to make a working solution (0.5% DMSO) with PPI Eu detection buffer, added to a 384-well plate at 5 μL/well, with the control group added with 0.5% dimethyl sulfoxide and the highest concentration of the test compound at 10 μM, and centrifuged at 2000 rpm for 40 seconds. An 80 nM GDP standard working solution (Cisbio, 63ADK000CB27PEG) was prepared with PPI Eu detection buffer and added to a 384-well plate at 5 μL/well, with the final concentration of GDP standard working solution at 20 nM. The plate was centrifuged at 2000 rpm for 40 seconds and reacted at room temperature for 30 minutes. 1×6His Eu cryptate antibody and GTP-Red reagent (Cisbio, 63ADK000CB27PEG) were prepared with PPI Eu detection buffer, mixed in a volume ratio of 1:1, 5 μL of which was then added to a 384-well plate, centrifuged at 2000 rpm for 40 seconds, and incubated at room temperature for 30 minutes. The fluorescence intensity at 620 nm and 665 nm was detected by a microplate reader, and the inhibitory activity of the compound on KRAS G12D protein was obtained by fitting a four-parameter equation.
row,Compound,IC50
1,"4-((5aS,6S,9R)-3-chloro-1-fluoro-13-(((2R,7aS)-2-fluorohexahydro-1H-pyrrolizin-7a-yl)methoxy)-5a,6,7,8,9,10-hexahydro-5H-6,9-epiminoazepino[2′,1′:3,4][1,4]oxazepino[5,6,7-de]quinazolin-2-yl)-1-(difluoromethyl)-1H-benzo[d]imidazol-2-amine ditrifluoroacetate [Compound I-23]",217 nM
2,"N#Cc1c(N)sc2cccc(-c3c(Cl)c4c5c(nc(OC[C@@]67CCCN6C[C@H](F)C7)nc5c3F)N3C[C@H]5CC[C@H](N5)[C@H]3CO4)c12 (single isomer, unassigned) [Compound I-7-1]",186 nM
3,"N#Cc1c(N)sc2c(F)ccc(-c3c(Cl)c4c5c(ncnc5c3F)N3C[C@H]5CC[C@H](N5)[C@H]3CO4)c12 (single isomer, unassigned) [Compound I-8-2]",60.4 nM
4,"N#Cc1c(N)sc2cccc(-c3c(Cl)c4c5c(ncnc5c3F)N3C[C@H]5CC[C@H](N5)[C@H]3CO4)c12 (single isomer, unassigned) [Compound I-10-2]",75.8 nM
5,"N#Cc1c(N)sc2c(F)ccc(-c3c(Cl)c4c5c(nc(OC[C@@]67CCCN6C[C@H](F)C7)nc5c3F)N3C[C@H]5CC[C@H](N5)[C@H]3CO4)c12 (single isomer, unassigned) [Compound I-11-2]",5.9 nM
6,"Nc1nc2c(-c3c(Cl)c4c5c(nc(OC[C@@]67CCCN6C[C@H](F)C7)nc5c3F)N3C[C@H]5CC[C@H](N5)[C@H]3CO4)cccc2s1 (single isomer, unassigned) [Compound I-12-1]",30.3 nM
7,"Nc1nc2c(-c3c(Cl)c4c5c(nc(OC[C@@]67CCCN6C[C@H](F)C7)nc5c3F)N3C[C@H]5CC[C@H](N5)[C@H]3CO4)ccc(F)c2s1 (single isomer, unassigned) [Compound I-19-2]",4.63 nM
8,"[2H]C([2H])(Oc1nc2c3c(c(Cl)c(-c4cccc5sc(N)c(C#N)c45)c(F)c3n1)OC[C@@H]1[C@@H]3CC[C@H](CN21)N3)[C@@]12CCCN1C[C@H](F)C2 (single isomer, unassigned) [Compound I-24-1]",136 nM
9,"Nc1n[nH]c2sc3cccc(-c4c(Cl)c5c6c(nc(OC[C@@]78CCCN7C[C@H](F)C8)nc6c4F)N4C[C@H]6CC[C@H](N6)[C@H]4CO5)c3c12 (single isomer, unassigned) [Compound I-26-2]",11 nM
10,"[2H]C1([2H])CC[C@@]2(C([2H])([2H])Oc3nc4c5c(c(Cl)c(-c6cccc7sc(N)c(C#N)c67)c(F)c5n3)OC[C@@H]3[C@@H]5CC[C@H](CN43)N5)C[C@@H](F)CN12 (single isomer, unassigned) [Compound I-27-1]",212 nM
11,"C#Cc1cccc2cc(O)cc(-c3nc4c5c(nc(OC[C@@]67CCCN6C[C@H](F)C7)nc5c3F)N3CC5CCC(N5)C3CO4)c12 (stereo partly drawn) [Compound I-1-1, 5-ethynyl-4-(1-fluoro-12-(((2R,7aS)-2-fluorohexahydro-1H-pyrrolizin-7a-yl)methoxy)-5a,6,7,8,9,10-hexahydro-5H-4-oxa-3,10a,11,13,14-pentaaza-6,9-methanonaphtho[1,8-ab]heptan-2-yl)naphthalen-2-ol]",11 nM
12,"C#Cc1cccc2cc(O)cc(-c3nc4c5c(nc(OC[C@@]67CCCN6C[C@H](F)C7)nc5c3F)N3C[C@H]5CC[C@H](N5)[C@H]3CO4)c12 [Compound I-4, 5-ethynyl-4-((5aS,6S,9R)-1-fluoro-12-(((2R,7aS)-2-fluorohexahydro-1H-pyrrolizin-7a(5H)-yl)methoxy)-5a,6,7,8,9,10-hexahydro-5H-4-oxa-3,10a,11,13,14-pentaaza-6,9-methanonaphtho[1,8-ab]heptan-2-yl)naphthalen-2-ol ditrifluoroacetate]",2.72 nM
13,"C#Cc1cccc2cc(O)cc(-c3nc4c5c(nc(OC[C@@]67CCCN6C[C@H](F)C7)nc5c3F)N3C[C@@H]5CC[C@@H](N5)[C@@H]3CO4)c12 [Compound I-5, 5-ethynyl-4-((5aR,6R,9S)-1-fluoro-12-(((2R,7aS)-2-fluorohexahydro-1H-pyrrolizin-7a(5H)-yl)methoxy)-5a,6,7,8,9,10-hexahydro-5H-4-oxa-3,10a,11,13,14-pentaaza-6,9-methanonaphtho[1,8-ab]heptan-2-yl)naphthalen-2-ol ditrifluoroacetate]",25.4 nM
14,"N#Cc1c(N)sc2cccc(-c3c(Cl)c4c5c(ncnc5c3F)N3CC5CCC(N5)C3CO4)c12 (stereo not drawn) [Compound I-6-2, 2-amino-4-(3-chloro-1-fluoro-5a,6,7,8,9,10-hexahydro-5H-6,9-epiminoazepino[2′,1′:3,4][1,4]oxazepino[5,6,7-de]quinazolin-2-yl)benzo[b]thiophene-3-carbonitrile (trans) trifluoroacetate]",53.5 nM
15,"N#Cc1c(N)nn2cccc(-c3c(Cl)c4c5c(nc(OC[C@@]67CCCN6C[C@H](F)C7)nc5c3F)N3C[C@H]5CC[C@H](N5)[C@H]3CO4)c12 [Compound I-13, 2-amino-4-((5aS,6S,9R)-3-chloro-1-fluoro-13-(((2R,7aS)-2-fluorohexahydro-1H-pyrrolizin-7a-yl)methoxy)-5a,6,7,8,9,10-hexahydro-5H-6,9-epiminoazepino[2′,1′:3,4][1,4]oxazepino[5,6,7-de]quinazolin-2-yl)pyrazolo[1,5-a]pyridine-3-carbonitrile]",32.5 nM
16,"Nc1cc2c(-c3c(Cl)c4c5c(nc(OC[C@@]67CCCN6C[C@H](F)C7)nc5c3F)N3C[C@H]5CC[C@H](N5)[C@H]3CO4)c(Cl)ccc2s1 [Compound I-15, 5-chloro-4-((5aS,6S,9R)-3-chloro-1-fluoro-13-(((2R,7aS)-2-fluorohexahydro-1H-pyrrolizin-7a-yl)methoxy)-5a,6,7,8,9,10-hexahydro-5H-6,9-epiminoazepino[2′,1′:3,4][1,4]oxazepino[5,6,7-de]quinazolin-2-yl)benzo[b]thiophen-2-amine ditrifluoroacetate]",38.1 nM
17,"Nc1cc2cc(-c3c(Cl)c4c5c(nc(OC[C@@]67CCCN6C[C@H](F)C7)nc5c3F)N3C[C@H]5CC[C@H](N5)[C@H]3CO4)ccc2s1 [Compound I-16, 5-((5aS,6S,9R)-3-chloro-1-fluoro-13-(((2R,7aS)-2-fluorohexahydro-1H-pyrrolizin-7a-yl)methoxy)-5a,6,7,8,9,10-hexahydro-5H-6,9-epiminoazepino[2′,1′:3,4][1,4]oxazepino[5,6,7-de]quinazolin-2-yl)benzo[b]thiophen-2-amine ditrifluoroacetate]",24 nM
18,"CC(Oc1nc2c3c(c(Cl)c(-c4cccc5sc(N)c(C#N)c45)c(F)c3n1)OCC1C3CCC(CN21)N3)C12CCCN1CC(F)C2 [Compound I-17-1, 2-amino-4-((5aS,6S,9R)-3-chloro-1-fluoro-13-(1-((2R,7aS)-2-fluorohexahydro-1H-pyrrolizin-7a-yl)ethoxy)-5a,6,7,8,9,10-hexahydro-5H-6,9-epiminoazepino[2′,1′:3,4][1,4]oxazepino[5,6,7-de]quinazolin-2-yl)benzo[b]thiophene-3-carbonitrile]",646 nM
19,"CC(Oc1nc2c3c(c(Cl)c(-c4cccc5sc(N)c(C#N)c45)c(F)c3n1)OC[C@H]1[C@@H]3CC[C@H](CN21)N3)[C@@]12CCCN1C[C@@H](F)C2 (stereo partly drawn) [Compound I-17-2, 2-amino-4-((5aS,6S,9R)-3-chloro-1-fluoro-13-(1-((2R,7aS)-2-fluorohexahydro-1H-pyrrolizin-7a-yl)ethoxy)-5a,6,7,8,9,10-hexahydro-5H-6,9-epiminoazepino[2′,1′:3,4][1,4]oxazepino[5,6,7-de]quinazolin-2-yl)benzo[b]thiophene-3-carbonitrile]",6.9 nM
20,"CC(Oc1nc2c3c(c(Cl)c(-c4c(F)ccc5sc(N)c(C#N)c45)c(F)c3n1)OC[C@@H]1[C@@H]3CC[C@H](CN21)N3)[C@@]12CCCN1C[C@H](F)C2 (stereo partly drawn) [Compound I-18, 2-amino-4-((5aS,6S,9R)-3-chloro-1-fluoro-13-(1-((2R,7aS)-2-fluorohexahydro-1H-pyrrolizin-7a-yl)ethoxy)-5a,6,7,8,9,10-hexahydro-5H-6,9-epiminoazepino[2′,1′:3,4][1,4]oxazepino[5,6,7-de]quinazolin-2-yl)-5-fluorobenzo[b]thiophene-3-carbonitrile ditrifluoroacetate]",22 nM
21,CN1CCC[C@@H]1COc1nc2c3c(c(Cl)c(-c4cccc5sc(N)c(C#N)c45)c(F)c3n1)OC[C@@H]1[C@@H]3CC[C@H](CN21)N3 [Compound I-29],10.8 nM
